Assay results reported in US20110098301A1, “Pyrimidine Derivatives for Treatment of Hyperproliferative Disorders” (BAYER HEALTHCARE LLC, priority 2005, published 2011).

These molecules were tested on HCT116 cells (assay: Cytotoxic activity: tumor cell proliferation assay (Alamar Blue)). Conditions: Homo sapiens, HCT-116, 72 h with compound, Alamar Blue readout.
Type: cell-based
Method: The following section describes an assay that can be used to characterize compounds of the invention, e.g., to test for the cytotoxic activity of compounds on cells.
Human tumor cells, e.g., HCT116 cells, are seeded in a 96-well plate at 3.0×10^3 cells/well and grown in 100 μl of RPMI complete media (Invitrogen Corporation, Grand Island, N.Y., USA) containing 10% fetal bovine serum (Hyclone, Logan, Utah, USA) and 10 mM HEPES and at 37° C. for 16 h in an incubator with 5% CO2. To each well, 50 μl of additional growth media containing 20 μM to 60 nM concentrations of compound with 0.2% DMSO is added. Cells are grown for another 72 h at 37° C. 20 μl of Alamar Blue (Trek Diagnostic Systems, Inc., Cleveland, Ohio, USA) reagent is added to each well and incubated for 4 h at 37° C. Plates are read in a SpectraMax Gemini (Molecular Devices, CA, USA) with 544 nm excitation and 590 nm emission wavelength. IC50 values are determined by linear regression analysis of log drug concentration versus percent inhibition.

Row | Structure (SMILES) | IC50 [nM]
1 | Nc1nc(Nc2ccc(Oc3ccnc(C(F)(F)F)c3)cc2)cc(-c2cncnc2)n1 [Example 337, N^6-(4-{[2-(trifluoromethyl)pyridin-4-yl]oxy}phenyl)-4,5′-bipyrimidine-2,6-diamine] | 135
2 | Cc1cccc(C)c1-c1cc(Nc2ccc(Oc3ccnc(C(F)(F)F)c3)cc2)nc(N)n1 [Example 335, 6-(2,6-dimethylphenyl)-N^4-(4-{[2-(trifluoromethyl)pyridin-4-yl]oxy}phenyl)pyrimidine-2,4-diamine] | 62
3 | Nc1nc(Nc2ccc(Oc3ccnc(C(F)(F)F)n3)cc2)cc(-c2ccccc2)n1 [Example 338, 6-phenyl-N^4-(4-{[2-(trifluoromethyl)pyrimidin-4-yl]oxy}phenyl)pyrimidine-2,4-diamine] | 17
4 | Cc1cc(Oc2ccc(Nc3cc(-c4ccc(N)nc4)nc(N)n3)cc2)ccn1 [Example 336, 6-(6-aminopyridin-3-yl)-N^4-{4-[(2-methylpyridin-4-yl)oxy]phenyl}pyrimidine-2,4-diamine] | 6
5 | Nc1ccc(-c2cc(Nc3ccc(Oc4ccnc(C(F)(F)F)n4)cc3)nc(N)n2)cn1 [Example 339, 6-(6-aminopyridin-3-yl)-N^4-(4-{[2-(trifluoromethyl)pyrimidin-4-yl]oxy}phenyl)pyrimidine-2,4-diamine] | 3
